“Also recorded” adds a separate entry of the source.
Experiments:
HT22 neuronal cells = assay: HT22 glutamate injury model, cell viability by XTT assay; assay type: cell-based; settings: for neuroprotection in glutamate injury model: 1 μM LXB4, glutamate challenge
From the text: In order to confirm the bioactivity of the synthesized material, its neuroprotective effects were confirmed in a neuronal injury model. Recent clinical failures of a variety of neuroprotection trials have intensified interest in new treatment strategies. Evidence is accumulating that lipoxins and other lipid mediators can have an important impact on neuroinflammation and neuronal survival.[13,38] […] Yet the lack of efficient syntheses of LXB4 coupled with the expensive cost from commercial sources (USD$806/100 μg, Cayman Chemical)[36] have made this new mechanism of action challenging to modify and study. In this regard the presently described synthetic route towards LXB4, and analogues thereof, provide a benefit for improving production and/or reducing cost of production of LXB4 and analogues thereof. Therefore, the neuroprotective activity of newly synthesized LXB4 was compared it against the commercial source to confirm its activity.[36] For this assay, HT22 neuronal cells were pre-treated with LXB4 from both sources (commercial vs. in-house), followed by a glutamate challenge to induce excitotoxic cell death.[14] Cell viability was then measured using an XTT assay.
HT22 cells (SCC129, EMD Millipore) were grown on 100-mm tissue culture dishes (83.3902.300, Sarstedt) and maintained in high glucose DMEM (Sigma, D5796-500ML) supplemented with 10% fetal bovine serum (080-150, Wisent) and 1% Penstrep (15140122, Gibco) at 37° C. in a 5% CO2 atmosphere incubator (67/340,1045, CellXpert C170, Eppendorf). Cells used for experiments were maintained at a <80% confluency and <25 passages, and were dissociated using TrypIE (12604013, Gibco).
HT22 cells were seeded at 4×10^3 cells in 100 μL of the high glucose DMEM+10% fetal bovine serum+1% Penstrep media on replicate wells of 96-well plates (83.3924.300, Sarstedt) for 20 hours at 37° C. in a 5% CO2 atmosphere humidified incubator. Cells were then pretreated with 5 μL of the indicated LXB4 concentration, or vehicle, one hour prior to addition of 3 mM glutamate stressor. Cells were exposed for 13 hours, then evaluated for cell viability using an XTT assay, according to the manufacturer's instructions (11465015001, Roche). The resulting absorbance values were read in a BMG CLARIOstar microplate reader under 490 nm excitation following 2 hours of XTT incubation and analyzed using Graphpad Prism 9 for ANOVA analyses and curve fitting.

[1] = test system: retinal ganglion cell death; settings: acute and chronic models of retinal ganglion cell death, glaucoma; cited from earlier work
neuronal cell types = settings: cited from earlier work
[2] = Storage and handling stability of LXB4; assay type: physicochemical
Procedure: Instability of LXB4 presented a substantial obstacle its synthesis and purification. […] Telescoping the final transformations from 27 to 2, preventing light exposure, and storing all crude intermediates in a methanol solution were required to obtain LXB4 of sufficient purity. LXB4 could be stored as a solution in methanol or ethanol at −20° C. for several weeks or at −80° C. for one to three months before substantial degradation was observed.
Dimethylethoxysilane (560 uL, 4.03 mmol, 8.0 equiv.) was added in one portion, followed by dropwise addition of Karstedt's catalyst (platinum(0)-1,3-divinyl-1,1,3,3,-tetramethyldisoloxane complex, 2% Pt) (115 μL, 0.010 mmol, 2 mol %). The round bottom flask was covered with foil to prevent UV exposure and the solution was stirred overnight at room temperature. […] The crude reaction mixture was filtered through a silica plug, which was washed with Et2O, and the collected filtrate was dried under vacuum to afford a yellow-brown oil. This oil was redissolved in anhydrous THF (4.4 mL) under argon. The solution was again wrapped in foil, and a solution of TBAF in THF (1.0 M, 4.0 mL, 8.0 equiv.) was added dropwise. The reaction was stirred at room temperature for 20 minutes. […] Another […] was added dropwise. […] The reaction was quenched by the addition of phosphate buffer (pH 7) and water and extracted with diethyl ether. The combined organic phase was dried over Na2SO4 and concentrated in vacuo. The crude oil was immediately redissolved in THF/H2O (3:1, 2.5 mL) and treated with LiOH (12.1 mg, 0.50 mmol, 1.0 equiv.) mmol. The resulting solution was stirred at room temperature in a round-bottom flask wrapped in aluminium foil until TLC indicated complete conversion. The reaction mixture was flash filtered through celite to remove any residual LiOH solid and washed with THF. The remaining solvent was removed in vacuo to afford a sticky yellow residue, which was immediately redissolved in MeOH. […] This material was purified by reverse phase HPLC (XBridge BEH OBD Prep column, 130A, 5 μM, 30 mm×150 mm) using a mobile phase of H2O+0.05% NH4OH (A) and acetonitrile+0.05% NH4OH (B) and a gradient elution of 97:3 A:B to 67:33 A:B. After lyophilization, we obtained 98.7 mg of LXB4 for a yield of 56% over three steps. LXB4 should be stored on dry ice until injected into the HPLC. In a solution in methanol at room temperature, formation of impurities which are extremely difficult to separate by HPLC occurred in 1-2 hours.

stability to air and light [2] | stability in HPLC buffer ([2]; HPLC buffer) | stability stored as a solid ([2]; crude or purified material, room temperature) | stability stored as a solid ([2]; low temperature (−20° C.)) | time to formation of impurities ([2]; solution in methanol at room temperature) [h] | storage time before substantial degradation ([2]; solution in methanol or ethanol at −20° C.) | storage time before substantial degradation ([2]; solution in methanol or ethanol at −80° C.) | Compound | neuroprotection in glutamate injury model (HT22 neuronal cells; n=8, p<0.05) | efficacy in vivo [1] | neuroprotection in glutamate injury model (HT22 neuronal cells; n=8, p<0.05, listed as synthesized LXB4) | EC50 (HT22 neuronal cells; Mus musculus, HT-22, glutamate injury, dose response curve, n=8) [nM] | potency relative to LXA4 (neuronal cell types; established neuronal injury model, also primary cortical, hippocampal and retinal ganglion cells) [fold] | potency and efficacy in direct neuroprotection compared with LXA4 (neuronal cell types; variety of neuronal cell types, acute and chronic injury models of glaucoma)
 |  |  |  |  |  |  | CCCCC[C@H](O)[C@H](O)/C=C/C=C/C=C\C=C\[C@@H](O)CCCC(=O)O [commercial LXB4, reference compound] | significantly neuroprotective; also recorded: significant protection |  |  |  |  | 
highly unstable | stable in HPLC buffer for several hours | rapid degradation | rapid degradation | 1 to 2 | several weeks | one to three | CCCCC[C@H](O)[C@H](O)/C=C/C=C/C=C\C=C\[C@@H](O)CCCC(=O)O [LXB4, (5S,6E,8Z,10E,12E,14R,15S)-5,14,15-trihydroxyicosa-6,8,10,12-tetraenoic acid] | significantly neuroprotective | efficacy in vivo | significant protection | 293 | 20 | significantly more potent and efficacious than LXA4

Source: patent US20250288549A1, “SYNTHETIC PROCESS FOR PRODUCTION OF LIPOXIN B4 AND ANALOGUES THEREOF” (UNIVERSITY HEALTH NETWORK, priority 2022, published 2025)
